Measured values taken from the NIST ThermoML archive (doi:10.1021/acs.jced.8b00202).

Conditions: Liquid, Frequency=8 MHz, Dual path-length method

CC(C)C [2-methylpropane]
Conditions | speed of sound [m/s]
199.99 K, 409.39 kPa | 1393.6
199.99 K, 599.71 kPa | 1394.9
199.99 K, 1103.6 kPa | 1398.1
199.99 K, 2104.3 kPa | 1404.5
199.99 K, 3104.9 kPa | 1410.8
199.99 K, 4105.7 kPa | 1417.1
199.99 K, 5106.3 kPa | 1423.3
199.99 K, 6107 kPa | 1429.4
199.99 K, 7107.8 kPa | 1435.5
199.99 K, 8108.5 kPa | 1441.5
199.99 K, 9109.1 kPa | 1447.5
199.99 K, 10110 kPa | 1453.4
199.99 K, 12612 kPa | 1467.8
199.99 K, 15113 kPa | 1482
199.99 K, 17615 kPa | 1495.8
199.99 K, 20117 kPa | 1509.3
199.99 K, 25120 kPa | 1535.6
199.99 K, 30124 kPa | 1560.8
199.99 K, 35128 kPa | 1585.2
199.99 K, 40131 kPa | 1608.7
199.99 K, 45134 kPa | 1631.5
199.99 K, 50138 kPa | 1653.5
199.99 K, 60145 kPa | 1695.8
199.99 K, 70152 kPa | 1735.8
199.99 K, 80158 kPa | 1773.8
200 K, 90166 kPa | 1810.1
200 K, 100173 kPa | 1844.9
220 K, 1103.2 kPa | 1276.9
220 K, 2103.8 kPa | 1284.3
220 K, 3102.9 kPa | 1291.5
220 K, 3104.4 kPa | 1291.5
220 K, 4105.1 kPa | 1298.6
220 K, 5105.2 kPa | 1305.7
220 K, 6106 kPa | 1312.7
220 K, 7106.6 kPa | 1319.5
220 K, 8107.3 kPa | 1326.3
220 K, 9108 kPa | 1333
220 K, 10109 kPa | 1339.7
220 K, 10110 kPa | 1339.7
220 K, 12610 kPa | 1356
220 K, 15112 kPa | 1371.8
220 K, 17614 kPa | 1387.2
220 K, 20116 kPa | 1402.2
220 K, 20117 kPa | 1402.2
220 K, 25119 kPa | 1431.2
220 K, 30123 kPa | 1459
220 K, 30124 kPa | 1459
220 K, 35126 kPa | 1485.6
220 K, 40130 kPa | 1511.2
220 K, 40131 kPa | 1511.2
220 K, 45134 kPa | 1535.8
220 K, 50137 kPa | 1559.7
220 K, 60144 kPa | 1605.2
220 K, 70151 kPa | 1648
220 K, 80158 kPa | 1688.5
220 K, 90165 kPa | 1727
220 K, 100172 kPa | 1763.8
240 K, 402.14 kPa | 1153
240 K, 402.77 kPa | 1153
240 K, 602.82 kPa | 1154.8
240 K, 1103.6 kPa | 1159
240 K, 2103.9 kPa | 1167.5
240 K, 2104.3 kPa | 1167.5
240 K, 3104.9 kPa | 1175.8
240 K, 4105.7 kPa | 1184
240 K, 5106.3 kPa | 1192.1
240 K, 6107.2 kPa | 1200
240 K, 7108 kPa | 1207.8
240 K, 8108.1 kPa | 1215.5
240 K, 8109.3 kPa | 1215.5
240 K, 9110.1 kPa | 1223.1
240 K, 10111 kPa | 1230.6
240 K, 12613 kPa | 1248.8
240 K, 15113 kPa | 1266.5
240 K, 15114 kPa | 1266.5
240 K, 17616 kPa | 1283.7
240 K, 20118 kPa | 1300.3
240 K, 25121 kPa | 1332.3
240 K, 30124 kPa | 1362.6
240 K, 30125 kPa | 1362.6
240 K, 35128 kPa | 1391.6
240 K, 40132 kPa | 1419.3
240 K, 45135 kPa | 1445.9
240 K, 50139 kPa | 1471.5
240 K, 60146 kPa | 1520.1
240 K, 70153 kPa | 1565.7
240 K, 80160 kPa | 1608.6
240 K, 90167 kPa | 1649.3
240 K, 100174 kPa | 1688
259.99 K, 8108.1 kPa | 1108.7
259.99 K, 15113 kPa | 1166
259.99 K, 30123 kPa | 1271.7
260 K, 402.73 kPa | 1036.8
260 K, 405.47 kPa | 1036.7
260 K, 607.87 kPa | 1038.8
260 K, 1106.4 kPa | 1043.8
260 K, 2104 kPa | 1053.6
260 K, 2107.1 kPa | 1053.6
260 K, 3107.8 kPa | 1063.2
260 K, 4108.4 kPa | 1072.7
260 K, 5109.1 kPa | 1081.9
260 K, 6109.7 kPa | 1091
260 K, 7111 kPa | 1099.9
260 K, 8111.7 kPa | 1108.6
260 K, 9112.4 kPa | 1117.2
260 K, 10113 kPa | 1125.7
260 K, 12615 kPa | 1146.2
260 K, 15116 kPa | 1166
260 K, 17618 kPa | 1185
260 K, 20120 kPa | 1203.5
260 K, 25123 kPa | 1238.6
260 K, 30127 kPa | 1271.7
260 K, 35130 kPa | 1303.1
260 K, 40134 kPa | 1333
260 K, 45137 kPa | 1361.5
260 K, 50140 kPa | 1388.9
260 K, 60147 kPa | 1440.6
260 K, 70154 kPa | 1488.7
260 K, 80161 kPa | 1533.9
260 K, 90168 kPa | 1576.6
260 K, 100175 kPa | 1617.2
280 K, 402.43 kPa | 921.86
280 K, 602.22 kPa | 924.25
280 K, 606.25 kPa | 924.3
280 K, 1103.2 kPa | 930.19
280 K, 2103.9 kPa | 941.79
280 K, 3104.4 kPa | 953.08
280 K, 4105.1 kPa | 964.08
280 K, 5105.7 kPa | 974.8
280 K, 6106.3 kPa | 985.26
280 K, 7107 kPa | 995.5
280 K, 8107.9 kPa | 1005.5
280 K, 9108.6 kPa | 1015.3
280 K, 10109 kPa | 1024.9
280 K, 12611 kPa | 1048
280 K, 15113 kPa | 1070.1
280 K, 17614 kPa | 1091.3
280 K, 20116 kPa | 1111.6
280 K, 25119 kPa | 1150.1
280 K, 30123 kPa | 1186.1
280 K, 35126 kPa | 1220
280 K, 40130 kPa | 1252.1
280 K, 45133 kPa | 1282.6
280 K, 50137 kPa | 1311.8
280 K, 60144 kPa | 1366.4
280 K, 70151 kPa | 1417.1
280 K, 80158 kPa | 1464.6
280 K, 90164 kPa | 1509.1
280 K, 100171 kPa | 1551.2
299.99 K, 3104.6 kPa | 844.54
300 K, 601.97 kPa | 809.82
300 K, 1103.1 kPa | 817.03
300 K, 1103.4 kPa | 817.08
300 K, 4105.3 kPa | 857.55
300 K, 5106 kPa | 870.14
300 K, 5106.3 kPa | 870.12
300 K, 6106.5 kPa | 882.34
300 K, 7107.5 kPa | 894.17
300 K, 8108.1 kPa | 905.68
300 K, 9108.7 kPa | 916.91
300 K, 10109 kPa | 927.83
300 K, 12611 kPa | 954.01
300 K, 15113 kPa | 978.78
300 K, 17614 kPa | 1002.3
300 K, 20116 kPa | 1024.8
300 K, 25120 kPa | 1066.9
300 K, 30123 kPa | 1105.9
300 K, 35127 kPa | 1142.4
300 K, 40131 kPa | 1176.7
300 K, 45134 kPa | 1209.2
